Results on one compound are retold here after patent US11918550B2, “Sensitization of cancer cells to differentiation therapy with mitochondrial uncoupler niclosamide ethanolamine” (The Board of Trustees of the Leland Stanford Junior …, priority 2020, dated 2024).

The test system of test [1] is SK-N-BE(2) cells. The experiment in a line: Infinium Methylation EPIC array, locus-specific DNA methylation. It is filed as cell-based. The protocol:
DNA microarray analysis. DNA extraction was carried out with samples were extracted by using PureLink™ Genomic DNA Mini Kit (Gibco, K182001), according to the protocol provided by the supplier. The DNA was quantified with the Nanodrop and 3 ug was used for bisulfite modification using the EZ DNA methylation kit (D5001, Zymo Research, Orange, CA) according to the protocol provided with the modification step according to the recommendations for array processing of the samples. Control PCR reactions were carried out before array analysis to confirm successful modification of the DNA. The bisulfite-modified DNA (500 ng) was applied to the Infinium MethylationEPIC array (Illumina). After bisulfite treatment of the DNA samples, the cytosines in the CpG sites were genotyped as C/T polymorphisms according to the manufacturer's protocol. Raw array data was collected with 866 k probes for 8 samples across 4 stages (those are control, 5 hours, 24 hours and 48 hours). The fluorescence signals were measured from the BeadArrays using an Illumina BeadStation GX scanner.
The fluorescence data were then analyzed using the GenomeStudio software (Illumina). The software assigns a score called a “b value” to each CpG site, which corresponds to the ratio between the fluorescence signal of the methylated allele (C) and the sum of the fluorescent signals of the methylated (C) and unmethylated (T) alleles. The data generated by the BeadStudio software was exported and further analyses were performed in the R programming environment. Then a detection p-value for every probe in every sample, representing the quality of the signal is generated using method minfi. Poor probes with all samples' p-values larger than or equal to 0.01 are removed which results in 864 k probes left. For methylation levels estimations we use M-Values (log 2 based Methylation signal over unmethylation signal) for analysis.
Differential Methylation Probes are identified by first standardizing M-Values with both rows and columns and then enforced certain direction (hypermethylated or hypomethylated) between control versus treatments. The p-values used in the volcano plot is calculated through Fisher' method by combining quality p-value for all samples with each probe.

Test [2] relates to SK-N-BE(2) cells. The experiment in a line: Methylated DNA Immunoprecipitation (MeDIP)-qRT-PCR. It is filed as cell-based. Conditions: 1 μM NEN 5 h. Here is the method:
Methylated DNA Immunoprecipitation. 5×10^5 SK-N-BE(2) cells were plated in 60 mm dishes. […] After treatment, the cells were collected for DNA extraction as described above. 10 μg genomic DNA was sheared using a Bioruptor® Plus sonicator (Diagenode, UCD-300) to 550 bp fragments according to the instrument manual. Agarose electrophoresis was employed to examine the sizes of DNA fragments. The sonicated DNA samples were denatured at 95° C. for 15 minutes, then kept on ice immediately for at least 5 minutes. 200 ng denatured DNA was transferred to a new tube for input control and diluted with EDTA-free TE buffer to 100 μl total volume. For each pulldown reaction, transfer 600 ng of denatured DNA solution to new tubes and add EDTA-free TE buffer to 300 μl total volume. Add 2 μl antibody (5-mc or IgG control) and 20 μl prewashed Dynabeads™ Protein A (Invitrogen™, 10001 D) into the tubes and incubate the samples at 4° C. for 60 minutes with rotation. After incubation, place the tubes in magnetic rack for 30 s to allow the beads separate from solution. Remove the solution carefully without disturbing the beads. Wash the beads for 4 times by IP buffer (0.01% SDS, 1% Triton X-100, 2 mM EDTA, 20 mM Tris-HCl pH 8.1, 150 mM NaCl). DNA was eluted by resuspending the beads in 100 μl of digestion buffer (10 mM Tris pH 8.0, 1 mM EDTA, 1% SDS, 1 μg/μl proteinase K) and incubated for 6 hr at 65° C. […]
(In general: Quantitative PCR measures a nucleic acid by following its amplification.)

Regarding `O=C(Nc1ccc([N+](=O)[O-])cc1Cl)c1cc(Cl)ccc1O` [NEN, 5-chloro-N-(2-chloro-4-nitrophenyl)-2-hydroxybenzamide compound with 2-aminoethanol (1:1)], in test [1] (1 μM NEN 24 or 48 hours), the “differentially methylated sites close to transcription start sites (TSS200, 1st exon)” value is “more hypomethylated sites than hypermethylated sites”; the “differentially methylated sites in 'shelf' and 'shore' regions (vs CpG islands)” value was “opposite trend”; the “differentially methylated sites in CpG islands” value was “more hypo-methylated sites than hyper-methylated sites”; the “differentially methylated sites in the gene body and 3′ UTR region” value was “more hypermethylated sites than hypomethylated sites”. Besides, the “DNA methylation levels of CpG sites in the promoter region of p53 and CTNNBIP1” value in test [1] (1 μM NEN 24 h) is given as “upregulated/downregulated”. Moreover, the “methylation on promoter region of genes in RAR signaling” value in test [2] is recorded as “reduced”.
